This series deals with serum and liver lipid levels in rats. Description: Serum and liver lipid levels and relative liver weight in rats (100 mg/kg, 10 days). The format is in vivo, Male rats of the Wistar strain. Conditions: for response vs control in vivo at 100 mg/kg: Rattus norvegicus, po; for response vs control in vivo at 100 mg/kg / Relative liver weight, relative to Control (100): in parentheses, Control = (100); for Liver lipid levels Ch / Liver lipid levels PL / Liver lipid levels TG / Relative liver weight / Serum lipid levels Ch / Serum lipid levels PL / Serum lipid levels TG: 100 mg/kg p.o. 10 days, Mean ± S.E. (n = 9). Here is the method:
(2) Male rats of the Wistar strain weighing 160-180 g were fed a stock deit (CE-2, Japan CLEA, Tokyo) and water ad libitum. The present compounds and KCD-232 were suspended, respectively, in a 0.5% of CMC solution and give orally to rats once a day at a dose of 100 mg/kg b.w. for 10 days.
Control rats were received the 0.5% CMC solution alone. The diet was withdrawn immediately after the last administration of compounds. Animals were sacrificed by decapitation 4 hr after the last administration and blood was collected, clotted and centrifuged to obtain serum. The liver was excised quickly and weighed. Total lipids were extracted from the serum and liver, and the levels of Ch, TG and PL were determined colorimetrically.

Setting [1] is: 240 h, Table 2, read-out: Liver lipid levels PL, relative to Control (100).
Setting [2] is: 240 h, Table 3, read-out: Liver lipid levels PL, relative to Control (100).
The mark [3] stands for this setting: Table 2, read-out: Liver lipid levels Ch, relative to Control (100).
Setting [4] is: Table 2, read-out: Liver lipid levels TG, relative to Control (100).
Setting [5] is: Table 2, read-out: Serum lipid levels Ch, relative to Control (100).
[6] abbreviates: Table 2, read-out: Serum lipid levels PL, relative to Control (100).
Setting [7] is: Table 2, read-out: Serum lipid levels TG, relative to Control (100).
[8] abbreviates: Table 3, read-out: Liver lipid levels Ch, relative to Control (100).
The mark [9] stands for this setting: Table 3, read-out: Liver lipid levels TG, relative to Control (100).
[10] abbreviates: Table 3, read-out: Serum lipid levels Ch, relative to Control (100).
The mark [11] stands for this setting: Table 3, read-out: Serum lipid levels PL, relative to Control (100).
Where [12] appears, read: Table 3, read-out: Serum lipid levels TG, relative to Control (100).

Results on six compounds are retold here after US4556715A, “Nicotinic acid derivatives” (Kyorin Pharmaceutical Co., Ltd., priority 1980, dated 1985).

Read-outs that look alike come from different tables or passages of the source.

Turning to `O=C(OCCc1ccc(OCc2ccc(Cl)cc2)cc1)c1cccnc1` [n1=1, n2=2, 4-(4-Chlorobenzyloxy)phenethyl nicotinate], the response vs control in vivo at 100 mg/kg is 105% under setting [1]; 104% under setting [2]; 78.3% under setting [3]; 82.9% under setting [4]; 78.1% under setting [5]; 76.8% under setting [6]. For the same compound, the response vs control in vivo at 100 mg/kg reads like this: under setting [7], 44.2%; under setting [8], 106%; under setting [9], 79%; under setting [10], 70.9%; under setting [11], 64.7%; under setting [12], 27.3%. Moreover, the “Liver lipid levels Ch” value (Table 2) was found to be 2.38 ± 0.10 mg/g liver and the “Liver lipid levels Ch” value (Table 3) was found to be 2.46 ± 0.14 mg/g liver. Further, the “Liver lipid levels PL” value reads like this: (Table 2) 39.9 ± 0.8 mg/g liver; (Table 3) 37.5 ± 0.4 mg/g liver. The “Liver lipid levels TG” value (Table 2) was found to be 5.24 ± 0.36 mg/g liver. Moreover, the Relative liver weight reads like this: (Table 2) 4.10 ± 0.06 g/100 g b.w; (Table 3) 3.80 ± 0.07 g/100 g b.w. Moreover, the Serum lipid levels Ch amounted to 67.7 ± 3.3 mg/dL (Table 2) and 69.2 ± 3.9 mg/dL (Table 3). Also, the Serum lipid levels PL by setting is: (Table 2) 114 ± 4.7 mg/dL; (Table 3) 101 ± 4.5 mg/dL. Also, the Serum lipid levels TG was determined as 54.7 ± 6.5 mg/dL (Table 2) and 34.2 ± 2.9 mg/dL (Table 3). Further, the “Relative liver weight, relative to Control (100)” value (“Relative liver weight … (100)” below) reads like this: (Table 2) 106; (Table 3) 100.
`O=C(OCCCCc1ccc(OCc2ccc(Cl)cc2)cc1)c1cccnc1` [n1=1, n2=4, 4-[4-Chlorobenzyloxy)phenyl]butyl nicotinate]: the response vs control in vivo at 100 mg/kg runs as follows: under setting [1], 101%; under setting [2], 101%; under setting [3], 70.1%; under setting [4], 106%; under setting [5], 75.4%; under setting [6], 77%. The response vs control in vivo at 100 mg/kg turned out to be 39.5% under setting [7]; 108% under setting [8]; 103% under setting [9]; 76% under setting [10]; 68.2% under setting [11]; 29.9% under setting [12]. Moreover, the “Liver lipid levels Ch” value is reported as 2.13 ± 0.04 mg/g liver (Table 2) and 2.51 ± 0.11 mg/g liver (Table 3). Besides, the “Liver lipid levels PL” value runs as follows: (Table 2) 38.4 ± 0.7 mg/g liver; (Table 3) 36.7 ± 0.9 mg/g liver. Further, the “Liver lipid levels TG” value (Table 2) is 6.73 ± 0.51 mg/g liver and the “Liver lipid levels TG” value (Table 3) was determined as 7.42 ± 0.88 mg/g liver. For the same compound, the Relative liver weight is reported as 4.44 ± 0.11 g/100 g b.w (Table 2) and 3.91 ± 0.10 g/100 g b.w (Table 3). For the same compound, the Serum lipid levels Ch is, setting by setting: (Table 2) 65.4 ± 1.4 mg/dL; (Table 3) 74.2 ± 2.5 mg/dL. For the same compound, the Serum lipid levels PL runs as follows: (Table 2) 114 ± 2.5 mg/dL; (Table 3) 106 ± 3.6 mg/dL. Besides, the Serum lipid levels TG worked out at 48.9 ± 5.1 mg/dL (Table 2) and 37.6 ± 3 mg/dL (Table 3). The “Relative liver weight … (100)” value reads like this: (Table 2) 115; (Table 3) 103.
For `O=C(OCCc1ccc(OCCc2ccc(Cl)cc2)cc1)c1cccnc1` [n1=2, n2=2, 4-(4-Chorophenethyloxy)phenetyl nicotinate], the response vs control in vivo at 100 mg/kg under setting [1] amounted to 107%. Moreover, the response vs control in vivo at 100 mg/kg under setting [3] worked out at 79.3%. In addition, under setting [4], the response vs control in vivo at 100 mg/kg was 84.2%. Further, the response vs control in vivo at 100 mg/kg under setting [5] turned out to be 78.8%. Further, the response vs control in vivo at 100 mg/kg under setting [6] stood at 78.2%. Further, the response vs control in vivo at 100 mg/kg under setting [7] stood at 39.1%. Also, under “Table 2”, the “Liver lipid levels Ch” value is listed as 2.41 ± 0.10 mg/g liver, the “Liver lipid levels PL” value stood at 40.8 ± 0.3 mg/g liver, the “Liver lipid levels TG” value came to 5.32 ± 0.45 mg/g liver and the Relative liver weight was determined as 3.97 ± 0.05 g/100 g b.w. Also, under “Table 2”, the Serum lipid levels Ch came to 68.3 ± 3.7 mg/dL; the Serum lipid levels PL worked out at 116 ± 5 mg/dL; the Serum lipid levels TG was 48.4 ± 4.8 mg/dL; the “Relative liver weight … (100)” value came to 103.
As for `O=C(OCCc1ccc(OCCCCc2ccc(Cl)cc2)cc1)c1cccnc1` [n1=4, n2=2, 4-[4-(4-Chlorophenyl)butoxy]phenethyl nicotinate], under setting [2], the response vs control in vivo at 100 mg/kg came to 109%. Also, the response vs control in vivo at 100 mg/kg under setting [8] was 98.3%. Moreover, under setting [9], the response vs control in vivo at 100 mg/kg is 79.7%. The response vs control in vivo at 100 mg/kg under setting [10] was 74%. Besides, the response vs control in vivo at 100 mg/kg under setting [11] amounted to 67.1%. Moreover, the response vs control in vivo at 100 mg/kg under setting [12] was 24.9%. For the setting “Table 3”, the “Liver lipid levels Ch” value came to 2.28 ± 0.09 mg/g liver, the “Liver lipid levels PL” value turned out to be 39.6 ± 0.9 mg/g liver, the “Liver lipid levels TG” value was determined as 5.72 ± 0.40 mg/g liver and the Relative liver weight is on record as 4.03 ± 0.07 g/100 g b.w. Besides, for the setting “Table 3”, the Serum lipid levels Ch was found to be 72.2 ± 1.3 mg/dL; the Serum lipid levels PL was determined as 104 ± 3.7 mg/dL; the Serum lipid levels TG was 31.3 ± 3.6 mg/dL; the “Relative liver weight … (100)” value is 106.
Take `O=C(OCCCCc1ccc(OCCCCc2ccc(Cl)cc2)cc1)c1cccnc1` [n1=4, n2=4, 4-{4-[4-(4-Chlorophenyl)butoxy]phenyl}butyl nicotinate]: under setting [1], the response vs control in vivo at 100 mg/kg is 107%. In addition, the response vs control in vivo at 100 mg/kg under setting [3] amounted to 79.3%. Besides, the response vs control in vivo at 100 mg/kg under setting [4] is 112%. Moreover, under setting [5], the response vs control in vivo at 100 mg/kg was 70.8%. Besides, the response vs control in vivo at 100 mg/kg under setting [6] was 69.2%. Also, the response vs control in vivo at 100 mg/kg under setting [7] is 31.5%. In addition, for the setting “Table 2”, the “Liver lipid levels Ch” value is on record as 2.41 ± 0.08 mg/g liver, the “Liver lipid levels PL” value amounted to 40.9 ± 0.4 mg/g liver, the “Liver lipid levels TG” value is on record as 7.11 ± 0.53 mg/g liver and the Relative liver weight is listed as 3.90 ± 0.06 g/100 g b.w. For the setting “Table 2”, the Serum lipid levels Ch was found to be 61.4 ± 3.2 mg/dL; the Serum lipid levels PL was found to be 103 ± 4.4 mg/dL; the Serum lipid levels TG was determined as 39 ± 3.2 mg/dL; the “Relative liver weight … (100)” value is reported as 101.
`O=C(OCCCCCCc1ccc(OCCCCCCc2ccc(Cl)cc2)cc1)c1cccnc1` [n1=6, n2=6, 6-{4-[6'-(4-Chlorophenyl)hexyloxy]phenyl}hexyl nicotinate]: under setting [2], the response vs control in vivo at 100 mg/kg was 107%. Further, the response vs control in vivo at 100 mg/kg under setting [8] is 103%. Moreover, under setting [9], the response vs control in vivo at 100 mg/kg was determined as 64.3%. Also, the response vs control in vivo at 100 mg/kg under setting [10] worked out at 79.3%. For the same compound, the response vs control in vivo at 100 mg/kg under setting [11] was 64.9%. For the same compound, the response vs control in vivo at 100 mg/kg under setting [12] was determined as 23.7%. Further, where the note is “Table 3”, the “Liver lipid levels Ch” value is 2.38 ± 0.08 mg/g liver, the “Liver lipid levels PL” value worked out at 38.7 ± 0.8 mg/g liver, the “Liver lipid levels TG” value turned out to be 4.62 ± 0.15 mg/g liver and the Relative liver weight came out at 3.84 ± 0.10 g/100 g b.w. Further, for the setting “Table 3”, the Serum lipid levels Ch came to 77.4 ± 3.8 mg/dL; the Serum lipid levels PL was 101 ± 3.7 mg/dL; the Serum lipid levels TG was 29.8 ± 1.5 mg/dL; the “Relative liver weight … (100)” value amounted to 101.
